# From patent US20200163984A1, “USE OF ISOVALERYL SPIRAMYCIN I, II AND/OR III IN MANUFACTURING MEDICAMENT FOR TREATING AND/OR PREVENTING TUMOR, AND MEDICAMENT” (SHENYANG FUYANG PHARMACEUTICAL TECHNOLOGY CO., LTD., priority 2017, published 2020)
# Key:
# [1] = system: transplanted tumor of human pancreatic cancer cell PANC-1; test: PANC-1 transplanted tumor in nude mice
# Experimental: (§1) Then cell concentration was adjusted to 1×10^7/ml with matrigel, then each nude mouse was inoculated subcutaneously with 0.2 ml of cells at its right armpit and recorded as the first day of inoculation. When the tumor grows to be greater than or equal to 100 mm^3, the mice were randomly divided into 11 groups with 6 mice in each group: a model group, a cyclophosphamide group, isovaleryl spiramycin I groups with doses of 25, 50 and 100 mg/kg, isovaleryl spiramycin II groups with doses of 25, 50 and 100 mg/kg, and isovaleryl spiramycin III groups with doses of 25, 50 and 100 mg/kg. Each group was continuously administered intragastrically for 30 days with a dose of 20 ml/kg. The mice were sacrificed the next day after drug withdrawal and the indicators were tested. The long diameter and short diameter of the tumor, and the body weight of each mouse were recorded every 3 days from drug administration to nude mouse sacrifice.
# (§2) The body weight of the nude mice and the long diameter (a) and short diameter (b) of the transplanted tumor were measured every 3 days, and the tumor volume (v), relative tumor volume (RTV) and relative tumor proliferation rate (T/C) are calculated respectively according to the following formulas, wherein V=a×b^2/2; RTV=V/V0 (V0 is the tumor volume before administration, V is the tumor volume before sacrifice), and T/C (%)=treatment group RTV/model control group RTV×100%.
# (§3) Each mouse was weighed and sacrificed. After the tumor was completely stripped off from the body of the mouse, the non-tumor tissues such as blood stains and fat were removed to weigh the tumor and calculate the tumor growth inhibition rate. The average tumor weight of each group of mice is used as an indicator of efficacy. Tumor growth inhibition rate (%)=(1−the average tumor weight of the treatment group/the average tumor weight of the model group)×100%.
# [2] = system: transplanted tumor of human renal clear cell adenocarcinoma cell 786-O; test: 786-O transplanted tumor in nude mice; settings: 786-O nude mice, 30 mg/kg
# Experimental: as §1, with “786-O cells in a logarithmic growth phase were taken and subjected to a trypan blue exclusion experiment showing that the cell viability was more than 95%, then the cells were subjected to trypsinization, centrifugation, and supernatant removal. Then” for “Then”
# as §2, §3
# [3] = system: transplanted tumor of human renal cell adenocarcinoma cell 769-P; test: 769-P transplanted tumor in nude mice; settings: 769-P nude mice, 30 mg/kg
# Experimental: as §1, with “the” for “the body”
# as §2, §3
# [4] = Spleen index of A549 lung cancer tumor-bearing mice
structure (smiles),measurement,setting,value
"O=P1(N(CCCl)CCCl)NCCCO1 (centres unmarked) [Cyclophosphamide, cyclophosphamide, reference compound]",Body Weight (d 1),"[1]; PANC-1, 30 mg/kg i.g. 30 days",22.03 ± 0.70 g
same,Body Weight (d 30),"[1]; PANC-1, 30 mg/kg i.g. 30 days",17.77 ± 0.65 g
same,Inhibition Rate (tumor growth inhibition rate),"[1]; PANC-1, 30 mg/kg i.g. 30 days",70.18%
same,Tumor Weight,"[1]; PANC-1, 30 mg/kg i.g. 30 days",0.81 ± 0.25*8 g
same,Relative Tumor Proliferation Rate (T/C),"[1]; PANC-1 nude mice, 30 mg/kg",29.56%
same,Relative Tumor Volume (RTV),"[1]; PANC-1 nude mice, 30 mg/kg",5.17 ± 0.64
same,Tumor Volume (mm3) (d 1),"[1]; PANC-1 nude mice, 30 mg/kg, d1",103.78 ± 12.65 mm3
same,Tumor Volume (mm3) (d30),"[1]; PANC-1 nude mice, 30 mg/kg, d30",532.62 ± 56.27 mm3
same,Inhibition Rate (%),[2],70.51%
same,Relative Tumor Proliferation Rate (T/C),[2],37.41%
same,Relative Tumor Volume (RTV),[2],6.76 ± 0.79
same,Tumor Weight,[2],0.63 ± 0.04 g
same,Body Weight (g) (d1),[2]; d1,21.58 ± 0.81 g
same,Tumor Volume (mm3) (d 1),[2]; d1,108.64 ± 14.40 mm3
same,Body Weight (g) (d30),[2]; d30,19.42 ± 0.67 g
same,Tumor Volume (mm3) (d30),[2]; d30,734.23 ± 24.66 mm3
same,Inhibition Rate (%),[3],70.52%
same,Relative Tumor Proliferation Rate (T/C),[3],35.34%
same,Relative Tumor Volume (RTV),[3],6.52 ± 0.90
same,Tumor Weight,[3],0.6 ± 0.03 g
same,Body Weight (g) (d1),[3]; d1,21.61 ± 1.00 g
same,Tumor Volume (mm3) (d 1),[3]; d1,107.92 ± 15.94 mm3
same,Body Weight (g) (d30),[3]; d30,21.58 ± 0.81 g
same,Tumor Volume (mm3) (d30),[3]; d30,704.00 ± 45.50 mm3
same,spleen index compared with the control group,"[4]; A549 tumor-bearing mice, cyclophosphamide, P<0.01",significantly lower
same,Spleen Index (%),"[4]; dose 26 mg/kg, n = 6",0.21 ± 0.07 %
